Experimental data published in BindingDB's records for doi:10.1021/bi000930v (Max Planck Institute, 2001).
Each block holds one compound with its values, some of them ahead of it.

Tests used:
[1] = target: T1, E3 ubiquitin-protein ligase Mdm2 (Homo sapiens, UniProt Q00987); assay: p53-MDM2 Binding ELISA; conditions: pH 7.4; 23 °C
Protocol: Interference of the p53-MDM2 binding by test compounds was measured in a 96-well polypropylene round-bottom microtiter plate (Costar, Serocluster). Human MDM2 (amino acids 1-118) was preincubated with 10% DMSO or compounds in assay buffer. After 15-min incubation of the sample, a biotinylated p53-derived peptide was added. As a negative control, buffer only was added into separate wells (blanks). After another 30 min, the incubation mixture was added to 96-well plates coated with streptavidin. After 1 h, the wells were extensively washed. Then, the MDM2 specific antibody was added. After 1 h, the wells were thoroughly washed and the secondary antibody (anti-rabbit-IgG-POD) was added. After another hour, the wells were washed, and the peroxidase subtrate ABTS was added. After 30 min, OD 405/490 nm was determined with a Dynatech MR 7000 ELISA reader.

[2] = target: T1, E3 ubiquitin-protein ligase Mdm2; assay: NMR Titration Experiment; conditions: pH 7.4; 23 °C
Protocol: NMR measurements consisted of monitoring changes in chemical shifts and line widths of the backbone amide resonances of uniformly 15N-enriched MDM2 samples in a series of HSQC spectra as a function of a ligand concentration. The complexes of human MDM2 and the chalcones were prepared by mixing the protein and the ligand in the NMR tube. Typically, NMR spectra were recorded 15 min after mixing at room temperature. An initial screening of all compounds used in this study was performed with a 10-fold molar excess of chalcone to human MDM2. […] All KD values obtained by NMR spectroscopy are based on at least six data points.

T1 sequence (Q00987 whole entry, the tested form may be a part): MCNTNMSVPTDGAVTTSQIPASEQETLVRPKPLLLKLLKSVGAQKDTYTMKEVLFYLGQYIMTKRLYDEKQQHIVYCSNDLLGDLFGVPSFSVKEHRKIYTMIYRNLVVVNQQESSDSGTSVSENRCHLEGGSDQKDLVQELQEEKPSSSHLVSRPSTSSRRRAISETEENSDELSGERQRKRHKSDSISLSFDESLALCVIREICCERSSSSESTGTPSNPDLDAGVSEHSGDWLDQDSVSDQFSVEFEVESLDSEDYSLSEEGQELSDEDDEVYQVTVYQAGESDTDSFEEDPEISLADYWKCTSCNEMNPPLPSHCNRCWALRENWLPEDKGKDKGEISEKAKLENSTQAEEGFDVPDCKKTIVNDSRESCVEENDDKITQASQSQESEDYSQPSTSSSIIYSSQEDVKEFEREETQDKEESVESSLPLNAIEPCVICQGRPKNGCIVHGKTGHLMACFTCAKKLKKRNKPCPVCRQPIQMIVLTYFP

Structure (SMILES): O=C(CC(=Nc1ccccc1)c1ccccc1)Nc1ccccc1 [Chalcone derivative, F]
IC50 [1]: > 250 µM

Structure (SMILES): CCOc1ccc(NC(=O)CC(=Nc2ccccc2)c2ccccc2)cc1 [Chalcone derivative, G]
IC50 [1]: > 250 µM

Structure (SMILES): O=C(O)COc1c(Br)cc(/C=C/C(=O)c2ccc3ccccc3c2)cc1Br [Chalcone derivative, N]
Kd [2]: 270 µM

Structure (SMILES): O=C(C(=S)Nc1ccccc1)C(C=Nc1ccccc1)c1ccccc1 (centres undefined) [Chalcone derivative, H]
IC50 [1]: > 250 µM

Structure (SMILES): CCOC(=O)C(C)(C)Oc1ccc(CCNC(=O)/C=C/C(=O)c2ccc(Cl)cc2)cc1 [Chalcone derivative, E]
IC50 [1]: > 250 µM

Next, values leading:

IC50 [1]: > 250 µM
Structure (SMILES): Oc1ccc2ccc3c(c2c1)CN(Cc1ccccc1)CO3 [Chalcone derivative, D]

Kd [2]: 90 µM
IC50 [1]: 49 µM
Structure (SMILES): O=C(O)COc1ccc(/C=C/C(=O)c2ccc(Cl)c(Cl)c2)cc1 [Chalcone derivative, B]

Kd [2]: 150 µM
IC50 [1]: 117 µM
Structure (SMILES): O=C(O)COc1ccc(C(=O)/C=C/c2ccc(Cl)c(Cl)c2)cc1 [Chalcone derivative, B-1]

Kd [2]: 220 µM
IC50 [1]: 206 µM
Structure (SMILES): O=C(O)COc1ccc(/C=C/C(=O)c2ccc(Cl)cc2)cc1 [Chalcone derivative, A]

Kd [2]: 244 µM
IC50 [1]: 250 µM
Structure (SMILES): CC(C)(Oc1ccc(/C=C/C(=O)c2ccc(Cl)cc2)cc1)C(=O)O [Chalcone derivative, C]
